Results from patent US9920295B2, “Bioreactor for isolation of rare cells and methods of use” (The Trustees of the University of Pennsylvania, priority 2012, dated 2018).

Experiments:
[1] = tested on: CD41+ and CD41− cells; assay: Label-free MS quantitation of cytoskeletal proteome; assay type: cell-based, human
Method: BM CD34^+-derived cells at day 7 were stained with CD41-FITC at room temperature for 1 h, followed by with Annexin-V-PE (BD Biosciences) in the Annexin-V staining medium for 15 min. Cells were then resuspended in 2% FBS/PBS with 7-AAD. Viable HSC-containing cell populations and differentiated MK lineages at day 7 in culture were separated on the basis of CD41 surface expression by cell sorting performed on a FACS Vantage machine (Becton Dickinson). Dead cells stained with 7-AAD and Annexin-V were excluded from sorting. Sorted cells were directly processed for mass spectrometry (MS) analyses (FIG. 5).
Samples were prepared for mass spectrometry by gel-free (Wiśniewski et al., 2009, Nat Methods, 6:359-362) or in-gel digestion methods. […] Label-free relative peptide quantitation was performed on proportional peak fingerprints (ProPF) of proteins with in-house software coded in Mathematica (Wolfram Research). […] Proteomes from primary MKs were analyzed using this unique method and a selected group of proteins were validated by antibodies (FIG. 13D). COS cells transfected with GFP-NMM-IIA and siRNA […] knockdown were also analyzed by the method, and show increased NMM-IIA expression by 17-fold and partial knockdown (˜40%) of NMM-IIA compared with cells transfected with GFP and scrambled siRNA. There was minimal perturbation to other proteins detected.

[2] = tested on: CD34+-derived cells (HSC, MPP, CPP); assay: HSC/P subpopulation analysis by flow cytometry; assay type: cell-based, human
Method: Freshly purified bone marrow-derived human CD34^+ cells were obtained from either the Penn Xenograft Core Facility or AllCells (Emeryville, Calif.). Cells from at least 20 different donors were used in this study. Purity of the samples (>98%) was confirmed by flow cytometry with monoclonal antibody against human CD34. All experiments were performed in HSC expansion media (StemLine, Sigma) supplemented with 1× antibiotics, 20% BIT 9500 Serum Substitute (StemCell Technologies), 2 mM […] (Gibco) and the following human recombinant cytokines: SCF (100 ng/ml) and Tpo (100 ng/ml). In some occasions, the media was also supplemented by G-CSF (100 ng/ml), epidermal growth factor (EGF, 100 ng/ml), transforming growth factor beta 1 (TGF-beta1, 100 ng/ml), erythropoietin (EPO, 1 U/ml) and interleukin-3 (IL-3, 10 ng/ml). All cytokines were purchased from R&D Systems. After cells were cultured for 4 days, they were treated with different doses of cellular contractility inhibitors, including (±)-Blebbistatin (Bleb) (EMD Biosciences) and/or CH-223191 (Sigma) for indicated durations of up to 3 days. Cells were cultured at 37° C. in 5% CO2.
Surface marker analysis for HSC/Ps was done on either a LSR II flow cytometer or FACSCalibur (Becton Dickinson). […] Cells isolated from the bone marrow stained for 1 hr with APC anti-mouse CD47 (miap301, AbD Serotec), FITC anti-human CD47 (BD Biosciences), and PE anti-human CD11b, PE anti-human CD19 (both from BD Biosciences), or PE anti-human Glycophorin A (Invitrogen). Plts and RBCs were analyzed by staining with PE anti-mouse CD41 (eBioscience) and FITC anti-human CD41 (eBioscience) for 20 min, followed by analysis on FACSCalibur on log forward and side scatter scales.

Cc1ccc2c(c1)C(=O)C1(O)CCN(c3ccccc3)C1=N2 (racemic) [blebbistatin, (±)-blebbistatin]
detected proteins up-regulated ([1]; CD41+ cells, treated samples): 75%
indicated proteins with increased expression ([1]; CD41− cells, 3 d treatment): 20%
change in primitive HSC cell number [2]: < 50%
enrichment for LT-HSCs ([2]; 20 μM, 2N cells): 15.6±4.1 fold
IC50 ([2]; 2N cells, n≥4 donors, read-out: CPP and MPP number IC50): ~10.5 µM
CPP depletion ([2]; 3-day treatment): 31 fold
CPP depletion, range ([2]; 3-day treatment): 15-48 fold
HSC enrichment, average ([2]; 3-day treatment): 16 fold
HSC enrichment, range ([2]; 3-day treatment): 5-24 fold
MPP depletion ([2]; 3-day treatment): 1.8 fold
MPP depletion, range ([2]; 3-day treatment): 1.3-2.3 fold
HSC number, mean ([2]; normalized to initial cell input): 646±77
HSC-to-MPP ratio vs untreated cells ([2]; on plastic): ~4 fold
Ki ([2]; read-out: inhibition constant Ki, MPPs and CPPs): ~10.5 µM
